Values joined by “and” are separate entries in the source; they are usually repeats but may differ in a detail not shown here. Identical values can stand only once.
Test: Part 2 PK study: 200 mg QD versus 100 mg BID for 10 days under fed conditions
Assay type: in vivo, human
Description: Part 2 involved analysing the PK parameters obtained following either single (QD) or twice daily (BD) dosing of a compound of formula (Ia) under fed conditions.
Subjects were randomized 1:1 to receive a daily dose of 200 mg administered once daily in the morning (200 mg capsule) or twice daily (100 mg capsules BID) for a total of 10 days. PK blood samples were taken on Day 1 pre-dose and at 0.25, 0.5, 1.0, 1.5, 2, 3, 4, 8, 10, 12 and 16 hours post-dose. On Days 2 to 10, PK blood samples were taken once pre-dose, and on Days 11 to 14, at 24, 36, 48, 60, 72 and 96 hours post-dose.
Subjects selected for participation checked into the clinical unit and were randomized to the dosing regimen receiving their first dose of study drug on the morning of Day 1 followed by PK and safety assessments through the morning of Day 2 (24 hours post-dose). Subjects on a BID regimen received their second dose of study drug approximately 12 hours after the first dose. Subjects remained confined in the clinic for dosing BID or QD through the last dose of study drug on the morning of Day 10. PK samples were collected through 96 hrs post-dose. Subjects were discharged from the clinic following collection of the 72 hr PK sample, returning to the clinic on the morning of Day 14 for the 96 hr sample collection.
For both Parts 1 and 2, samples were processed and analysed as follows. The method extracted Q-122 and the Internal Standard (IS, Q-122 ^13C4) from human plasma using protein precipitation extraction.
The analytes were separated by HPLC on a Phenomenex Synergi Polar-RP column, and the eluates monitored by an API4000 MS/MS detector in positive MRM mode. The extract was then assayed against a calibration curve. The data were acquired and processed by the data acquisition system Analyst® (Sciex) linked directly to the API4000 MS/MS detector and then processed in Watson LIMS™ (Thermo Scientific), where applicable. The method range is from 10.0 to 2500 ng/mL using 50 μL of matrix and has a run time of approximately 3.2 minutes per sample.
Plasma PK parameters for each dosing regimen and dose level were calculated from the concentrations of Q-122 and its major metabolites measured in pre-dose and post-dose plasma samples. For each dose level, descriptive statistics (sample size, arithmetic means, geometric means, standard deviation, % coefficient of variation, minimum, median, and maximum) are presented.
The pharmacokinetic results were processed according to standard non-compartmental analytical procedures. The software used was Phoenix™ WinNonlin® v 6.4 (Pharsight Corporation, USA) and Microsoft® Excel® 2010 (Microsoft Corporation). The following PK parameters were estimated from plasma data.

[1] = 100 mg BID, fed, Day 1, individual subjects
[2] = 100 mg BID, fed, Day 10, individual subjects

c1cnc(NCc2ccc(CNc3ncccn3)cc2)nc1 [Q-122]
Cmin (range over subjects) (100 mg BID dosing with food): 117 to 195 ng/mL | change of Cavg between days 1 and 10 (100 mg BID dosing with food): doubled | increase of mean Cmax between days 1 and 10 (100 mg BID dosing with food): less than 2 fold | trough concentrations with BID dosing relative to QD dosing (100 mg BID versus 200 mg QD): approximately double | AUC0-last [1]: 6822 ng·h/mL and 7028 ng·h/mL and 6463 ng·h/mL and 6090 ng·h/mL and 5186 ng·h/mL | AUC0-tau [1]: 3781 ng·h/mL and 2727 ng·h/mL and 4254 ng·h/mL and 3600 ng·h/mL and 4378 ng·h/mL | Cavg [1]: 354.49 ng/mL and 299.97 ng/mL and 364.87 ng/mL and 232.90 ng/mL and 315.05 ng/mL and 227.25 ng/mL | Cmax [1]: 939.00 ng/mL and 773.00 ng/mL and 845.00 ng/mL and 405.00 ng/mL and 852.00 ng/mL and 563.00 ng/mL | Fluct [1]: 264.89% and 257.70% and 231.59% and 173.90% and 270.44% and 247.74% | Tlast [1]: 24.00 h | Tmax [1]: 1.00 h and 1.50 h | t½ [1]: 9.38 h and 6.21 h and 3.97 h and 3.19 h and 5.52 h and 4.66 h | AUC0-tau (100 mg BID, fed, Day 1, max): 4378 ng·h/mL | Cavg (100 mg BID, fed, Day 1, max): 364.87 ng/mL | Cmax (100 mg BID, fed, Day 1, max): 939.00 ng/mL | Fluct (100 mg BID, fed, Day 1, max): 270.44% | Tlast (100 mg BID, fed, Day 1, max): 24.00 h | t½ (100 mg BID, fed, Day 1, max): 9.38 h | Cavg (100 mg BID, fed, Day 1, mean): 299.088 ng/mL | Fluct (100 mg BID, fed, Day 1, mean): 241.041% | Tlast (100 mg BID, fed, Day 1, mean): 24.000 h | Cavg (100 mg BID, fed, Day 1, median): 307.51 ng/mL | Fluct (100 mg BID, fed, Day 1, median): 252.72% | Tlast (100 mg BID, fed, Day 1, median): 24.00 h | AUC0-last (100 mg BID, fed, Day 1, min): 5186 ng·h/mL | AUC0-tau (100 mg BID, fed, Day 1, min): 2727 ng·h/mL | Cavg (100 mg BID, fed, Day 1, min): 227.25 ng/mL | Cmax (100 mg BID, fed, Day 1, min): 405.00 ng/mL | Fluct (100 mg BID, fed, Day 1, min): 173.90% | Tlast (100 mg BID, fed, Day 1, min): 24.00 h | Tmax (100 mg BID, fed, Day 1, min): 1.00 h | t½ (100 mg BID, fed, Day 1, min): 3.19 h | % AUCexp [2]: 2.24% and 1.52% and 8.16% and 4.45% and 7.33% and 4.38% | AUC0-last [2]: 7715 ng·h/mL and 5510 ng·h/mL and 6477 ng·h/mL and 5615 ng·h/mL and 7597 ng·h/mL | AUC0-tau [2]: 5982 ng·h/mL and 3731 ng·h/mL and 5545 ng·h/mL and 4118 ng·h/mL and 6283 ng·h/mL | AUCinf [2]: 7834 ng·h/mL and 6000 ng·h/mL and 6779 ng·h/mL and 6059 ng·h/mL and 7945 ng·h/mL | Accum Index [2]: 2.06 and 1.33 and 4.17 and 1.36 and 1.79 and 1.28 | CLss/F [2]: 14.28 L/h and 16.72 L/h and 26.80 L/h and 18.03 L/h and 24.29 L/h and 15.92 L/h | Cavg [2]: 583.47 ng/mL and 498.51 ng/mL and 310.92 ng/mL and 462.09 ng/mL and 343.13 ng/mL and 523.54 ng/mL | Cmax [2]: 1160.00 ng/mL and 865.00 ng/mL and 1050.00 ng/mL and 677.00 ng/mL and 1070.00 ng/mL | Cmin [2]: 122.00 ng/mL (2×) and 164.00 ng/mL and 117.00 ng/mL and 155.00 ng/mL and 195.00 ng/mL | Fluct [2]: 201.90% and 199.80% and 240.58% and 200.83% and 152.13% and 167.13% | Tlast [2]: 48.00 h and 36.00 h (2×) and 72.00 h and 24.00 h (2×) | Tmax [2]: 1.50 h and 1.00 h | t½ [2]: 12.52 h and 6.01 h and 30.30 h and 6.26 h and 10.19 h and 5.46 h | % AUCexp (100 mg BID, fed, Day 10, max): 8.16% | Accum Index (100 mg BID, fed, Day 10, max): 4.17 | CLss/F (100 mg BID, fed, Day 10, max): 26.80 L/h | Cavg (100 mg BID, fed, Day 10, max): 583.47 ng/mL | Cmin (100 mg BID, fed, Day 10, max): 195.00 ng/mL | Fluct (100 mg BID, fed, Day 10, max): 240.58% | Tlast (100 mg BID, fed, Day 10, max): 72.00 h | t½ (100 mg BID, fed, Day 10, max): 30.30 h | % AUCexp (100 mg BID, fed, Day 10, mean): 4.679%

Reference: US20220133722A1, “PHARMACEUTICAL COMPOSITIONS” (QUE ONCOLOGY PTY LTD, priority 2019, published 2022)
